According to patent publication US12173088B2, “Anti-microbial peptides” (priority 2018, dated 2024):
≈ marks a conversion by molar mass, not a printed value. Square brackets hold non-standard residues; d marks the D form. Peptide text beside a SMILES is read from it.

Key:
S. aureus M838-17 (MRSA) = experiment: microbe, parasite or virus in culture; assay type: cell-based, Staphylococcus aureus; conditions: M838-17; read-out: MIC S. aureus M838-17 (MRSA)
In short: (§1)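 Broth microdilution: log-phase cultures in tryptic soy broth diluted to OD600 0.001, exposed to two-fold diluted peptides at 37° C overnight, growth read at 630 nm. Medium effects on S. aureus USA300 tested with up to 200 mM NaCl, 2 mM CaCl2, 5-10% human serum, mouse plasma, fluids or tissue homogenate supernatants.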

S. aureus USA300 [1] = experiment: microbe, parasite or virus in culture; assay type: cell-based, Staphylococcus aureus
In short: as §1

P. aeruginosa PAO1 = assay type: cell-based, Pseudomonas aeruginosa; conditions: PAO1
In short: (§2)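 Broth microdilution in tryptic soy broth: log-phase cultures (OD600 ≈0.5) diluted to OD600 0.001, given two-fold peptide dilutions, incubated overnight at 37° C. Growth read at 630 nm.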

E. coli ATCC 25922 = assay type: cell-based, Escherichia coli; conditions: ATCC 25922
In short: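 Broth microdilution: log-phase E. coli diluted to OD600 0.001 and exposed to two-fold serial peptide dilutions overnight at 37 °C. Growth read at 630 nm.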

Hemolytic assay = assay type: cell-based, human; conditions: human, human red blood cells, 2% (v/v)
In short: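 Washed hRBCs (2% v/v) exposed to peptide for 1 h at 37 °C, then centrifuged and hemoglobin in supernatant read at 545 nm. Lysis normalized to Triton X-100 (2% or 1%; 100%) and PBS (0%); HL50 is the peptide concentration giving 50% lysis, and CSI is HL50/MIC.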

E. faecium V286-17 (VRE) = experiment: microbe, parasite or virus in culture; assay type: cell-based, Enterococcus faecium; conditions: V286-17 (VRE)
In short: as §1

P. aeruginosa E411-17 = experiment: microbe, parasite or virus in culture; assay type: cell-based, Pseudomonas aeruginosa; conditions: E411-17; read-out: MIC P. aeruginosa E411-17
In short: as §1

K. pneumoniae E406-17 = experiment: microbe, parasite or virus in culture; assay type: cell-based, Klebsiella pneumoniae; conditions: E406-17; read-out: MIC K. pneumoniae E406-17
In short: as §2

E. coli ampC E416-7 = assay type: cell-based, Escherichia coli; conditions: Table 7
Excerpt: The bacterial strains used include the Gram-positive strains Staphylococcus aureus USA300 LAC, S. epidermidis 1457, and Bacillus subtilis 168, as well as the Gram-negative isolates Escherichia coli K12 and Acinetobacter baumannii B2367-12. Additional, drug resistance strains include Gram-positive Enterococcus faecium V286-17 (VRE) and S. aureus M838-17 (MRSA) and Gram-negative E. coli E423-17, E. coli E416-17 (ampC), and P. aeruginosa E411-17. Bacteria were cultivated in tryptic soy broth (TSB) (BD Bioscience, MD).
The antibacterial activity of peptides was evaluated using a standard broth microdilution protocol with minor modifications as described (Mishra, et al. (2012) J. Am. Chem. Soc., 134:12426-12429). In brief, logarithmic phase bacterial cultures (i.e., optical density at 600 nm≈0.5) were diluted to OD600 0.001 and partitioned into a 96-well polystyrene microplate at 90 μL per well. After treatment with 10 μL of peptide solutions two fold diluted to various concentrations, microplates were incubated at 37° C. overnight and read on a ChroMate® 4300 Microplate Reader at 630 nm (GMI, Ramsey, MN). […] To study the influence of medium conditions on the antimicrobial activity of peptides against S. aureus USA300, up to 200 mM sodium chloride (NaCl), 2 mM of calcium chloride, 5-10% of human serum, mouse plasma, fluid, or supernatants of tissue homogenates were included into the assays.

E. coli E423-17 = experiment: microbe, parasite or virus in culture; assay type: cell-based, Escherichia coli; conditions: E423-17; read-out: MIC E. coli E423-17
In short: as §1

[2] = system: trypsin, chymotrypsin, S. aureus V8 protease, Proteinase K
Experimental: Briefly, a solution (100 μL) of peptide/protease molar ratio, 40:1 was made in 10 mM PBS buffer (pH 8.0) and was incubated at 37° C. Aliquots (10 μL) of the reaction solutions were taken after 1, 3 and 6 days and immediately mixed with 20 μL of 2×SDS loading buffer and boiled in a water bath to stop the reaction. For the SDS gel analysis, 10 μL of each sample was loaded to the well of a 5% stacking/18% resolving tricine gel and run at a constant current of 35 mA.

S. aureus USA300 [3] = conditions: starting template; cited from earlier work

Compound | MIC (S. aureus M838-17 (MRSA)) [µM] | MIC (S. aureus USA300 [1]; USA300) [µM] | MIC (S. aureus USA300 [1]; USA300, pH 6.8) [µM] | MIC (S. aureus USA300 [1]; USA300, pH 7.4) [µM] | MIC (S. aureus USA300 [1]; USA300, pH 8) [µM] | MIC PA (P. aeruginosa PAO1) (P. aeruginosa PAO1) [µM] | MIC EC (E. coli ATCC 25922) (E. coli ATCC 25922) [µM] | HC50 at 1 h (Hemolytic assay) [µM] | MIC E. faecium V286-17 (VRE) (E. faecium V286-17 (VRE)) [µM] | MIC (P. aeruginosa E411-17) [µM] | MIC (K. pneumoniae E406-17) [µM] | MIC E. coli ampC E416-7 (E. coli ampC E416-7) [µM] | MIC (E. coli E423-17) [µM] | Protease stability [2] | MIC against MRSA (S. aureus USA300 [3]) [µM]
CC(C)C[C@@H](NC(=O)[C@@H](CC(C)C)NC(=O)[C@@H](CCCCN)NC(=O)[C@@H](CC(C)C)NC(=O)CNC(=O)[C@@H](CC(C)C)NC(=O)[C@@H](CO)NC(=O)[C@@H](CC(C)C)NC(=O)[C@@H](CC(C)C)NC(=O)[C@@H](CC(C)C)NC(=O)[C@@H](CCCCN)NC(=O)[C@@H](CC(C)C)NC(=O)CN)C(N)=O [DFT561d, GLKLLLSLGLKLL] (H-G[dL][dK][dL][dL][dL][dS][dL]G[dL][dK][dL][dL]-NH2; N-terminus and C-terminus assumed) | 3.1 (≈ 4.28 µg/mL) | 3.1 (≈ 4.28 µg/mL) | 3.1 (≈ 4.28 µg/mL) | 1.6 (≈ 2.21 µg/mL) | 1.6 (≈ 2.21 µg/mL) | >25 | >25 | > 300 | 3.1 to 6.25 | >50 | >50 | >50 | >50 | resistant to proteases | 
temporin-SHf |  |  |  |  |  |  |  |  |  |  |  |  |  |  | 25
